Laboratory results from patent US20100105655A1, “NOVEL COMPOUNDS 515” (ASTRAZENECA AB, priority 2008, published 2010).

Molecular target: T1, IGFR kinase (Homo sapiens, UniProt P08069)
T1 construct: purchased Millipore
Test: Enzyme assay (c), IGFR kinase, Caliper LabChip
Format: biochemical
Settings: 30 nM IGFR kinase, 6 uM ATP, 3 uM peptide mix; read-out: IGFR IC50

T1 sequence (P08069 31-1367): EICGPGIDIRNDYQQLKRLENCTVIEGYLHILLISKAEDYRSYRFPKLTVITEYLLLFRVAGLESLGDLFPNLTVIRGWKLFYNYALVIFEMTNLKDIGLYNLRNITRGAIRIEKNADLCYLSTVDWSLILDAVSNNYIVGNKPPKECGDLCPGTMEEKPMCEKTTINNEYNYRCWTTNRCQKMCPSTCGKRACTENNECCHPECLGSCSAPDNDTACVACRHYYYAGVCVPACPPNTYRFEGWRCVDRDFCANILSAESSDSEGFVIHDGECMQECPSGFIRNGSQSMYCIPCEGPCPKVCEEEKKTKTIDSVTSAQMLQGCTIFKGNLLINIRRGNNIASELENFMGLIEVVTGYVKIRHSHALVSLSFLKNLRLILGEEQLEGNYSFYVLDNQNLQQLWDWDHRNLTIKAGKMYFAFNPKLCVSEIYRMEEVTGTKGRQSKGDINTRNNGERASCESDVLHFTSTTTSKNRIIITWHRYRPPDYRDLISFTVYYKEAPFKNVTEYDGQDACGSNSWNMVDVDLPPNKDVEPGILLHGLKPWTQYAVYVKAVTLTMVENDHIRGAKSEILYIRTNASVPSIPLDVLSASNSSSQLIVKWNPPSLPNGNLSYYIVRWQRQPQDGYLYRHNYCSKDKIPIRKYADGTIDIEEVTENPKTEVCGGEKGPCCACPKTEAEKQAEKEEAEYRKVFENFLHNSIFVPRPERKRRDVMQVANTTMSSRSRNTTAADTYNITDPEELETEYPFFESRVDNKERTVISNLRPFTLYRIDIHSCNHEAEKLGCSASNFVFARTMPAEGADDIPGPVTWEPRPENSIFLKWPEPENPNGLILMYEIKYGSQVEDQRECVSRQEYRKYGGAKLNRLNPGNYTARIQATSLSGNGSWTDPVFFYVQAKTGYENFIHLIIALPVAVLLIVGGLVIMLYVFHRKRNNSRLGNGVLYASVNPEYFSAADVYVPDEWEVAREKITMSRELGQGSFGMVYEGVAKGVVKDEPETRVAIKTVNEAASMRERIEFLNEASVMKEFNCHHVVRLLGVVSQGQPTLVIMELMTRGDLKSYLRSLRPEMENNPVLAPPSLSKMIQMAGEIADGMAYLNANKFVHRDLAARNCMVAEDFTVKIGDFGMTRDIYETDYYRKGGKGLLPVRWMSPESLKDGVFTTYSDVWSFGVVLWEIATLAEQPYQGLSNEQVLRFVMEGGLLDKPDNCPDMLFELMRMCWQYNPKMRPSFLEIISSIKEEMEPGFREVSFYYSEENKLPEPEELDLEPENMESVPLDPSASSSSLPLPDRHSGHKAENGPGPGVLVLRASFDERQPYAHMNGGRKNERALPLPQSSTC

IC50	Structure (SMILES)
39 nM	COc1cc(N2CCN(C(C)(C)CO)CC2)ccc1Nc1ncc(C)c(-c2cnc3cc(C)ccn23)n1 [Example 262, 2-[4-[3-methoxy-4-[[5-methyl-4-(7-methylimidazo[1,2-a]pyridin-3-yl)pyrimidin-2-yl]amino]phenyl]piperazin-1-yl]-2-methyl-propan-1-ol]
14 nM	COc1cc(N2CC3CN(CCO)CC(C2)O3)ccc1Nc1ncc(F)c(-c2cnn3ccccc23)n1 [Example 175, 2-[7-[4-[(5-fluoro-4-pyrazolo[1,5-a]pyridin-3-yl-pyrimidin-2-yl)amino]-3-methoxy-phenyl]-9-oxa-3,7-diazabicyclo[3.3.1]nonan-3-yl]ethanol]
110 nM	COc1ccc(N2CCNCC2)cc1Nc1ncc(C)c(-c2cnc3c(F)cccn23)n1 [Example 199, 4-(8-fluoroimidazo[1,2-a]pyridin-3-yl)-N-(2-methoxy-5-piperazin-1-yl-phenyl)-5-methyl-pyrimidin-2-amine]
19 nM	COc1cc(O[C@H]2CCN(S(C)(=O)=O)C2)ccc1Nc1ncc(Cl)c(-c2cnc3ccccn23)n1 [Example 14, 5-chloro-4-imidazo[1,2-a]pyridin-3-yl-N-[2-methoxy-4-[(3S)-1-methylsulfonylpyrrolidin-3-yl]oxy-phenyl]pyrimidin-2-amine]
54 nM	COc1cc(C2CCN(C(C)=O)CC2)ccc1Nc1ncc(F)c(-c2cnc3ccccn23)n1 [Example 78, 1-[4-[4-[(5-fluoro-4-imidazo[1,2-a]pyridin-3-yl-pyrimidin-2-yl)amino]-3-methoxy-phenyl]-1-piperidyl]ethanone]
15 nM	COc1cc(N2CCN(C(C)=O)CC2)ccc1Nc1ncc(C(F)(F)F)c(-c2cnc3ccccn23)n1 [Example 107, 1-[4-[4-[[4-imidazo[1,2-a]pyridin-3-yl-5-(trifluoromethyl)pyrimidin-2-yl]amino]-3-methoxy-phenyl]piperazin-1-yl]ethanone]
32 nM	COc1cc(OC2CN(C(=O)N(C)C)C2)ccc1Nc1ncc(Cl)c(-c2cnc3ccccn23)n1 [Example 69, 3-[4-[(5-chloro-4-imidazo[1,2-a]pyridin-3-yl-pyrimidin-2-yl)amino]-3-methoxy-phenoxy]-N,N-dimethyl-azetidine-1-carboxamide]
9 nM	COc1cc(N2CCN(C(=O)N(C)CCO)CC2)ccc1Nc1ncc(Cl)c(-c2cnc3ccccn23)n1 [Example 47.1, 4-[4-[(5-chloro-4-imidazo[1,2-a]pyridin-3-yl-pyrimidin-2-yl)amino]-3-methoxy-phenyl]-N-(2-hydroxyethyl)-N-methyl-piperazine-1-carboxamide]
44 nM	COCCN1CCN(CCOc2ccc(Nc3ncc(Cl)c(-c4cnc5ccccn45)n3)c(OC)c2)CC1 [Example 3.12, 5-chloro-4-imidazo[1,2-a]pyridin-3-yl-N-[2-methoxy-4-[2-[4-(2-methoxyethyl)piperazin-1-yl]ethoxy]phenyl]pyrimidin-2-amine]
16 nM	COc1cc(N2CCN(CCO)CC2)ccc1Nc1ncc(C(F)(F)F)c(-c2cnc3ccccn23)n1 [Example 109, 2-[4-[4-[[4-imidazo[1,2-a]pyridin-3-yl-5-(trifluoromethyl)pyrimidin-2-yl]amino]-3-methoxy-phenyl]piperazin-1-yl]ethanol]
22 nM	CC(=O)N1CCN(c2ccc(Nc3ncc(Cl)c(-c4cnc5ccccn45)n3)c(OC(C)C)c2)CC1 [Example 3.34, 1-[4-[4-[(5-chloro-4-imidazo[1,2-a]pyridin-3-yl-pyrimidin-2-yl)amino]-3-isopropoxy-phenyl]piperazin-1-yl]ethanone]
5 nM	COc1cc(N2CCN(C(=O)[C@@H](C)O)CC2)ccc1Nc1ncc(Cl)c(-c2cnc3c(F)cc(F)cn23)n1 [Example 256, (2R)-1-[4-[4-[[5-chloro-4-(6,8-difluoroimidazo[1,2-a]pyridin-3-yl)pyrimidin-2-yl]amino]-3-methoxy-phenyl]piperazin-1-yl]-2-hydroxy-propan-1-one]
1 nM	COc1cc2c(cc1Nc1ncc(Cl)c(-c3cnn4ccccc34)n1)N(C(=O)CN(C)C)CC2 [Example 157, 1-[6-[(5-chloro-4-pyrazolo[1,5-a]pyridin-3-yl-pyrimidin-2-yl)amino]-5-methoxy-indolin-1-yl]-2-(dimethylamino)ethanone]
5 nM	COc1cc(N2CCN(C(=O)[C@H](C)N)CC2)ccc1Nc1ncc(Cl)c(-c2cnc3cc(C)ccn23)n1 [Example 258, (2S)-2-amino-1-[4-[4-[[5-chloro-4-(7-methylimidazo[1,2-a]pyridin-3-yl)pyrimidin-2-yl]amino]-3-methoxy-phenyl]piperazin-1-yl]propan-1-one]
43 nM	COc1cc(N2CCN(CCO)[C@H](C)C2)ccc1Nc1ncc(C)c(-c2cnc3ccccn23)n1 [Example 270, 2-[(2R)-4-[4-[(4-imidazo[1,2-a]pyridin-3-yl-5-methyl-pyrimidin-2-yl)amino]-3-methoxy-phenyl]-2-methyl-piperazin-1-yl]ethanol]
7 nM	COc1cc(N2CCN(C(=O)[C@@H](C)N)CC2)ccc1Nc1ncc(Cl)c(-c2cnc3ccc(F)cn23)n1 [Example 252, (2R)-2-amino-1-[4-[4-[[5-chloro-4-(6-fluoroimidazo[1,2-a]pyridin-3-yl)pyrimidin-2-yl]amino]-3-methoxy-phenyl]piperazin-1-yl]propan-1-one]

IC50	Structure (SMILES)
22 nM	COc1cc(OC2CN(C(=O)CO)C2)ccc1Nc1ncc(Cl)c(-c2cnc3ccccn23)n1 [Example 27.3, 1-[3-[4-[(5-chloro-4-imidazo[1,2-a]pyridin-3-yl-pyrimidin-2-yl)amino]-3-methoxy-phenoxy]azetidin-1-yl]-2-hydroxy-ethanone]
21 nM	COc1cc(N2CCN(C(C)=O)C(CO)C2)ccc1Nc1ncc(Cl)c(-c2cnc3ccccn23)n1 (stereo not shown) [Example 3.38, 1-[4-[4-[(5-chloro-4-imidazo[1,2-a]pyridin-3-yl-pyrimidin-2-yl)amino]-3-methoxy-phenyl]-2-(hydroxymethyl)piperazin-1-yl]ethanone]
8 nM	COc1cc(N2CCN(C(C)=O)CC2)c(C)cc1Nc1ncc(Cl)c(-c2cnc3ccccn23)n1 [Example 278, 1-[4-[4-[(5-chloro-4-imidazo[1,2-a]pyridin-3-yl-pyrimidin-2-yl)amino]-5-methoxy-2-methyl-phenyl]piperazin-1-yl]ethanone]
19 nM	COc1cc(N2CC3CN(CCS(C)(=O)=O)CC(C2)O3)ccc1Nc1ncc(Cl)c(-c2cnc3c(F)cccn23)n1 [Example 207, 5-chloro-4-(8-fluoroimidazo[1,2-a]pyridin-3-yl)-N-[2-methoxy-4-[3-(2-methylsulfonylethyl)-9-oxa-3,7-diazabicyclo[3.3.1]nonan-7-yl]phenyl]pyrimidin-2-amine]
31 nM	COc1cc(N2CCN(C(C)=O)CC2)ccc1Nc1ncc(C2CC2)c(-c2cnn3ccccc23)n1 [Example 234, 1-[4-[4-[(5-cyclopropyl-4-pyrazolo[1,5-a]pyridin-3-yl-pyrimidin-2-yl)amino]-3-methoxy-phenyl]piperazin-1-yl]ethanone]
9 nM	COc1cc(N2CCN(C(=O)C3CCC(=O)N3)CC2)ccc1Nc1ncc(Cl)c(-c2cnc3ccccn23)n1 (stereo not shown) [Example 25.1, 5-[4-[4-[(5-chloro-4-imidazo[1,2-a]pyridin-3-yl-pyrimidin-2-yl)amino]-3-methoxy-phenyl]piperazine-1-carbonyl]pyrrolidin-2-one]
14 nM	COc1cc(C2CCN(C(=O)[C@H](C)O)CC2)ccc1Nc1ncc(Cl)c(-c2cnc3ccccn23)n1 [Example 28.4, (2S)-1-[4-[4-[(5-chloro-4-imidazo[1,2-a]pyridin-3-yl-pyrimidin-2-yl)amino]-3-methoxy-phenyl]-1-piperidyl]-2-hydroxy-propan-1-one]
17 nM	COc1cc(C2CCN(C(C)=O)C(C)C2)ccc1Nc1ncc(Cl)c(-c2cnc3ccccn23)n1 (stereo not shown) [Example 59.1, 1-[4-[4-[(5-chloro-4-imidazo[1,2-a]pyridin-3-yl-pyrimidin-2-yl)amino]-3-methoxy-phenyl]-2-methyl-1-piperidyl]ethanone]
43 nM	COc1cc(N2CC[C@H](N(C)C)C2)ccc1Nc1ncc(Cl)c(-c2cnc3ccccn23)n1 [Example 3.16, 5-chloro-N-[4-[(3S)-3-dimethylaminopyrrolidin-1-yl]-2-methoxy-phenyl]-4-imidazo[1,2-a]pyridin-3-yl-pyrimidin-2-amine]
9 nM	COc1cc(N2CC3CN(C)CC(C2)O3)ccc1Nc1ncc(Cl)c(-c2cnc3c(F)cccn23)n1 [Example 203, 5-chloro-4-(8-fluoroimidazo[1,2-a]pyridin-3-yl)-N-[2-methoxy-4-(7-methyl-9-oxa-3,7-diazabicyclo[3.3.1]nonan-3-yl)phenyl]pyrimidin-2-amine]
18 nM	COc1cc(CN2CCC2)ccc1Nc1ncc(Cl)c(-c2cnc3ccccn23)n1 [Example 21.10, N-[4-(azetidin-1-ylmethyl)-2-methoxy-phenyl]-5-chloro-4-imidazo[1,2-a]pyridin-3-yl-pyrimidin-2-amine]
14 nM	COc1cc(N2CCN(C(C)CO)CC2)ccc1Nc1ncc(C)c(-c2cnc3ccccn23)n1 (stereo not shown) [Example 274, 2-[4-[4-[(4-imidazo[1,2-a]pyridin-3-yl-5-methyl-pyrimidin-2-yl)amino]-3-methoxy-phenyl]piperazin-1-yl]propan-1-ol]
23 nM	COc1cc(N2CC3CN(CCO)CC(C2)O3)ccc1Nc1ncc(C)c(-c2cnc3ccccn23)n1 [Example 232, 2-[7-[4-[(4-imidazo[1,2-a]pyridin-3-yl-5-methyl-pyrimidin-2-yl)amino]-3-methoxy-phenyl]-9-oxa-3,7-diazabicyclo[3.3.1]nonan-3-yl]ethanol]
5 nM	COc1cc(N2CC3CN(CCO)CC(C2)O3)ccc1Nc1ncc(Cl)c(-c2cnn3ccccc23)n1 [Example 150, 2-[7-[4-[(5-chloro-4-pyrazolo[1,5-a]pyridin-3-yl-pyrimidin-2-yl)amino]-3-methoxy-phenyl]-9-oxa-3,7-diazabicyclo[3.3.1]nonan-3-yl]ethanol]
5 nM	COc1cc(C2CCN(C(=O)[C@@H](C)OC)CC2)ccc1Nc1ncc(Cl)c(-c2cnc3ccccn23)n1 [Example 28.1, (2R)-1-[4-[4-[(5-chloro-4-imidazo[1,2-a]pyridin-3-yl-pyrimidin-2-yl)amino]-3-methoxy-phenyl]-1-piperidyl]-2-methoxy-propan-1-one]
